No end group written: not given here.
Target: T1, GPR103 I26N-termA (Homo sapiens, UniProt Q96P65, I26A)
T1 construct: we used human full-length QRFPR-encoding plasmids; expressed in transfected cells; host or cells: HEK293 cells, pCAGGS vector
T1 sequence (Q96P65 1-431 I26A): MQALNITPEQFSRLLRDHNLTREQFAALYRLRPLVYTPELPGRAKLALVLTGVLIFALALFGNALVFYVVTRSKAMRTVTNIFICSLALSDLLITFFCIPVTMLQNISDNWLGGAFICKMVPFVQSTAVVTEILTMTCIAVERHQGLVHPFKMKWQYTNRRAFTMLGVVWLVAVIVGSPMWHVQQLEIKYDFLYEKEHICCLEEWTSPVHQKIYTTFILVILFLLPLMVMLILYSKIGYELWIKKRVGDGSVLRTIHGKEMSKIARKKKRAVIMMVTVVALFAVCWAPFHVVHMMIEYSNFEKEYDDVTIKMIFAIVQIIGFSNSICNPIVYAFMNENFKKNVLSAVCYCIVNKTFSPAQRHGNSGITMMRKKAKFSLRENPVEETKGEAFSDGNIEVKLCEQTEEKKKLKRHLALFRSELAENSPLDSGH
Test: TGFα shedding assay; Exp. level WT (1:20)
Format: cell-based

Emax (mean): 95.1%
EC50 (n = 3): 43.7 nM
Emax (n = 3): 97.6 ± 5%
Substance: TSGPLGNLAEELNGYSRKKGGFSFRF-NH2 [QRFP26]
